# Counter-ions that a name gives are not always drawn.
# Experiments:
# Assay in all cases: Hydrolysis on Columbia agar with ferric ammonium citrate
# Type in all cases: cell-based
# Aeromonas caviae = tested on: Aeromonas caviae; set-up: key to the marks not given beside the values; conditions: Aeromonas caviae NCTC 10852
# Experimental: (§1) The chromogenic β-D-ribofuranoside substrate was added to Columbia agar at a substrate concentration of 300 mg/l. Ferric ammonium citrate was included at 500 mg/l. All ingredients were autoclaved at 116° C. for 20 minutes to ensure sterilisation. Agar plates were then prepared in 90 mm petri dishes. The substrate caused a yellow colouration of the agar.
# (§2) For each strain tested, a bacterial suspension was prepared in sterile deionised water at an inoculum of approximately 1.5×10^8 colony forming units per ml. This was achieved using a densitometer. 1 μl of each bacterial suspension was then inoculated onto each plate using a multipoint inoculator. Strains were inoculated in parallel onto Columbia agar containing ferric ammonium citrate with no substrate (negative control).
# (§3) After 18 hours incubation, strains were examined visually for the presence of colour. Any strains producing a black colouration on substrate containing media but not on the negative control plates were deemed to be hydrolysing the substrate.
# Serratia spp. = tested on: Serratia spp.; set-up: key to the marks not given beside the values
# Experimental: as §1, §2, §3
# Shigella boydii = tested on: Shigella boydii; set-up: key to the marks not given beside the values
# Experimental: as §1, §2, §3
# Shigella dysenteriae = tested on: Shigella dysenteriae; set-up: key to the marks not given beside the values
# Experimental: as §1, §2, §3
# Vibrio fluvialis = tested on: Vibrio fluvialis; set-up: key to the marks not given beside the values; conditions: Vibrio fluvialis NCTC 11327
# Experimental: as §1, §2, §3
# E. aerogenes = tested on: E. aerogenes; set-up: β-Riboside (hydrolysis): key to the marks not given beside the values
# Experimental: as §1, §2, §3
# E. coli = tested on: E. coli; set-up: β-Riboside (hydrolysis): key to the marks not given beside the values
# Experimental: as §1, §2, §3
# K. pneumoniae = tested on: K. pneumoniae; set-up: β-Riboside (hydrolysis): key to the marks not given beside the values
# Experimental: as §1, §2, §3
# Shigella sonnei = tested on: Shigella sonnei; set-up: β-Riboside (hydrolysis): key to the marks not given beside the values
# Experimental: as §1, §2, §3
# A. calcoaceticus = A. calcoaceticus ATCC 7844
# Experimental: as §1, §2, §3
# Bacillus cereus = Bacillus cereus NCTC
# Experimental: as §1, §2, §3
# Enterococcus durans = Enterococcus durans NCTC 8307
# Experimental: as §1, §2, §3
# [1] = tested on: Haemolytic streptococcus G
# Experimental: as §1, §2, §3
# Listeria seerigeri = Listeria seerigeri PHLS wild
# Experimental: as §1, §2, §3
# P. mirabilis = tested on: P. mirabilis
# Experimental: as §1, §2, §3
# P. vulgaris = tested on: P. vulgaris
# Experimental: as §1, §2, §3
# [2] = tested on: Staphylococcus epidermidis
# Experimental: as §1, §2, §3
# [3] = tested on: Staphylococcus haemolyticus
# Experimental: as §1, §2, §3
# Streptococci = tested on: Streptococci
# Experimental: as §1, §2, §3
# Streptococcus gordonii = Streptococcus gordonii NCTC 7865
# Experimental: as §1, §2, §3
# Streptococcus milleri = Streptococcus milleri wild
# Experimental: as §1, §2, §3
# Streptococcus salivarius = Streptococcus salivarius NCTC 8618
# Experimental: as §1, §2, §3
# [4] = tested on: Streptococcus vestibularis; conditions: Streptococcus vestibularis NCTC 12166
# Experimental: as §1, §2, §3
# Vibrio anguillarum = Vibrio anguillarum NCTC 12159
# Experimental: as §1, §2, §3
# Vibrio cincinnatiensis = Vibrio cincinnatiensis NCTC 12012
# Experimental: as §1, §2, §3
# Vibrio furnissii = Vibrio furnissii NCTC 11218
# Experimental: as §1, §2, §3
# Vibrio hollisae = Vibrio hollisae NCTC 11640
# Experimental: as §1, §2, §3
# Vibrio mimicus = Vibrio mimicus NCTC 11435
# Experimental: as §1, §2, §3
# Vibrio parahaemolyticus = tested on: Vibrio parahaemolyticus
# Experimental: as §1, §2, §3
smiles,measurement,setting,value
"O=c1cc(-c2ccc(OC3OC(CO)C(O)C3O)c(O)c2)oc2ccccc12 [DHF-riboside, 3′,4′-Dihydroxyflavone-4′-β-D-ribofuranoside sodium salt]",β-Riboside (hydrolysis),Aeromonas caviae,++
same,β-Riboside (hydrolysis),Serratia spp.; Serratia spp. SEX 1,++
same,β-Riboside (hydrolysis),Serratia spp.; Serratia spp. SEX 2,++
same,β-Riboside (hydrolysis),Serratia spp.; Serratia spp. SEX 3,++
same,β-Riboside (hydrolysis),Serratia spp.; Serratia spp. SEX 4,++
same,β-Riboside (hydrolysis),Shigella boydii; Shigella boydii NCTC 9327,++
same,β-Riboside (hydrolysis),Shigella boydii; Shigella boydii NCTC 9732,++
same,β-Riboside (hydrolysis),Shigella boydii; Shigella boydii NCTC 9850,++
same,β-Riboside (hydrolysis),Shigella dysenteriae; Shigella dysenteriae (type 2) NCTC 9952,++
same,β-Riboside (hydrolysis),Shigella dysenteriae; Shigella dysenteriae (type 3) NCTC 9720,++
same,β-Riboside (hydrolysis),Shigella dysenteriae; Shigella dysenteriae (type 4) NCTC 9759,++
same,β-Riboside (hydrolysis),Vibrio fluvialis,++
same,β-Riboside (hydrolysis),E. aerogenes; E. aerogenes EAE 1,++
same,β-Riboside (hydrolysis),E. aerogenes; E. aerogenes NCIMB 10102,++
same,β-Riboside (hydrolysis),E. coli; E. coli ECO 2,++
same,β-Riboside (hydrolysis),E. coli; E. coli ECO 3,++
same,β-Riboside (hydrolysis),E. coli; E. coli ECO 4,++
same,β-Riboside (hydrolysis),E. coli; E. coli ECO 5,++
same,β-Riboside (hydrolysis),E. coli; E. coli ECO 6,++
same,β-Riboside (hydrolysis),E. coli; E. coli ECO 7,++
same,β-Riboside (hydrolysis),E. coli; E. coli ECO 8,++
same,β-Riboside (hydrolysis),E. coli; E. coli ECO 9,++
same,β-Riboside (hydrolysis),E. coli; E. coli ECO 10,++
same,β-Riboside (hydrolysis),E. coli; E. coli ECO 11,++
same,β-Riboside (hydrolysis),E. coli; E. coli ECO 12,++
same,β-Riboside (hydrolysis),E. coli; E. coli NCTC 10418,++
same,β-Riboside (hydrolysis),K. pneumoniae; K. pneumoniae KPN 2,++
same,β-Riboside (hydrolysis),K. pneumoniae; K. pneumoniae KPN 3,++
same,β-Riboside (hydrolysis),K. pneumoniae; K. pneumoniae KPN 4,++
same,β-Riboside (hydrolysis),K. pneumoniae; K. pneumoniae NCTC 10896,++
same,β-Riboside (hydrolysis),Shigella sonnei; Shigella sonnei NCTC 8219,++
same,β-Riboside (hydrolysis),Shigella sonnei; Shigella sonnei NCTC 8574,++
same,β-Riboside (hydrolysis),Shigella sonnei; Shigella sonnei NCTC 8586,++
same,β-Riboside (hydrolysis),Shigella sonnei; Shigella sonnei NCTC 9774,++
same,β-Riboside (hydrolysis),Shigella sonnei; Shigella sonnei NCTC 10352,++
same,β-Riboside (hydrolysis),A. calcoaceticus,−
same,β-Ribofuranoside (hydrolysis),Bacillus cereus,−
same,β-Ribofuranoside (hydrolysis),Enterococcus durans,−
same,β-Ribofuranoside (hydrolysis),[1]; Reference No. 1,−
same,β-Ribofuranoside (hydrolysis),[1]; Reference No. 2,−
same,β-Ribofuranoside (hydrolysis),[1]; Reference No. 3,+
same,β-Ribofuranoside (hydrolysis),Listeria seerigeri,−
same,β-Riboside (hydrolysis),P. mirabilis; P. mirabilis NCTC 10975,−
same,β-Riboside (hydrolysis),P. mirabilis; P. mirabilis PMI 1,−
same,β-Riboside (hydrolysis),P. mirabilis; P. mirabilis PMI 2,−
same,β-Riboside (hydrolysis),P. vulgaris; P. vulgaris PVU 2,−
same,β-Riboside (hydrolysis),P. vulgaris; P. vulgaris PVU 4,−
same,β-Riboside (hydrolysis),P. vulgaris; P. vulgaris PVU 5,−
same,β-Ribofuranoside (hydrolysis),[2]; Staphylococcus epidermidis RB60,++
same,β-Ribofuranoside (hydrolysis),[2]; Staphylococcus epidermidis RB62,+
same,β-Ribofuranoside (hydrolysis),[2]; Staphylococcus epidermidis RB63,+
same,β-Ribofuranoside (hydrolysis),[2]; Staphylococcus epidermidis RB64,+
same,β-Ribofuranoside (hydrolysis),[2]; Staphylococcus epidermidis RB65,+
same,β-Ribofuranoside (hydrolysis),[3]; Staphylococcus haemolyticus RB 66,+
same,β-Ribofuranoside (hydrolysis),[3]; Staphylococcus haemolyticus RB 67,+
same,β-Ribofuranoside (hydrolysis),[3]; Staphylococcus haemolyticus RB 68,+
same,β-Ribofuranoside (hydrolysis),[3]; Staphylococcus haemolyticus RB 69,+
same,β-Ribofuranoside (hydrolysis),[3]; Staphylococcus haemolyticus RB 70,+
same,Activity with the substrate,Streptococci,almost universally negative
same,β-Ribofuranoside (hydrolysis),Streptococcus gordonii,−
same,β-Ribofuranoside (hydrolysis),Streptococcus milleri,−
same,β-Ribofuranoside (hydrolysis),Streptococcus salivarius,−
same,β-Ribofuranoside (hydrolysis),[4],−
same,β-Riboside (hydrolysis),Vibrio anguillarum,−
same,β-Riboside (hydrolysis),Vibrio cincinnatiensis,−
same,β-Riboside (hydrolysis),Vibrio furnissii,−
same,β-Riboside (hydrolysis),Vibrio hollisae,−
same,β-Riboside (hydrolysis),Vibrio mimicus,−
same,β-Riboside (hydrolysis),Vibrio parahaemolyticus; Vibrio parahaemolyticus NCTC 10441,−
same,β-Riboside (hydrolysis),Vibrio parahaemolyticus; Vibrio parahaemolyticus NCTC 10884,−
same,β-Riboside (hydrolysis),Vibrio parahaemolyticus; Vibrio parahaemolyticus NCTC 10903,−
same,β-Riboside (hydrolysis),Vibrio parahaemolyticus; Vibrio parahaemolyticus NCTC 11344,−
same,β-Riboside (hydrolysis),Vibrio parahaemolyticus; Vibrio parahaemolyticus NCTC 12205,−
